This is an account of results in publication PMC12048343, “Discovery of a small molecule secreted clusterin enhancer that improves memory in Alzheimer’s disease mice” (npj Drug Discovery, 2025).

In brackets after ≈: the same amount, converted by molar mass. Where two headings read alike, the source gives them in different places.

One data set is described as follows: Kinetic solubility. In kind it is physicochemical. The conditions noted are these: aqueous buffer, kinetic from dmso stock, PBS pH 7.4, 37 °C, 100 µM nominal. The method, then: Test compound (10 mM, 100% DMSO) was diluted separately into aqueous buffer (100 µM; PBS pH 7.4) and DMSO at various concentrations (1000, 100, 10, 1, 0.1 µM). The solutions were then incubated at 37 °C for 90 min and centrifuged (16000xg, 5 min). An aliquot of each supernatant was analyzed by UV/Vis (if possible) or LC-MS/MS. A standard curve was made by plotting the known amount of analyte per standard in DMSO vs. absorbance or chromatographic peak area. Kinetic solubility (mM) was calculated using the trendline equation with maximum absorbance or chromatographic peak area observed in the aqueous sample.

Data set [1] can be described thus: Liver microsome stability assay. The format is in vitro ADME. The settings on record: pH 7.4; human liver microsomes 0.5 mg/mL, NADPH, 37 °C, up to 120 min; read-out: Microsomal Stability t1/2. The protocol:
An aliquot (1 µL) of test compound (1 mM, 100% DMSO) was added to an aqueous liver microsome solution (1000 µL, PBS pH 7.4, 0.5 mg/mL human liver microsomes (Thermo Fisher Scientific, Cat#HMMPL), 2 mM NADPH, 2 mM MgCl2) and incubated at 37 °C for 120 min. Aliquots (50 µL) of the microsome solution were taken at various time points (0, 5, 10, 15, 30, 60, 90, 120 min) and added to a reaction quenching solution (200 µL 100% Acetonitrile) containing an internal standard. Solutions were clarified by centrifugation (16,000 x g, 5 min), and the supernatants were transferred to new tubes and lyophilized. Samples were reconstituted in 100 µL of 50/50/0.1 (Water/Acetonitrile/Formic Acid) prior to analysis via liquid chromatography-tandem mass spectrometry (LC-MS/MS). Chromatographic peak areas normalized to the internal standard were plotted at each time point and the half-life (t1/2) of compound in liver microsomes was determined by using the trendline equation to calculate the time at which compound abundance was 50% of that at time point 0 (t0).
Background: Liver microsomes are a subcellular fraction often used to study metabolism.

Data set [2] is described as follows: Plasma binding assay (dialysis). The format is in vitro ADME. The conditions noted are these: dialysis 4.5 hours, 37 °C. The method, then: (§1) Brain tissue was homogenized in PBS (pH 7.4) (1: 3 weight(mg)/volume(µL)) and the protein concentration was determined using the Micro BCA™ Protein Assay Kit (Thermo Fisher Scientific, Cat#23235). Brain homogenate was clarified and diluted to 20 mg/mL in PBS (pH 7.4). Either brain homogenate or plasma was and added to Slide-A-Lyzer™ MINI Dialysis Devices, 10 K MWCO dialysis cups (Thermo Fisher Scientific, Cat#PI88401) in a 48-well plate containing PBS (500 µL; pH 7.4). 1 µL of 1 mM compound was added to the brain homogenate (Final Concentration: 2 µM compound, 0.5% DMSO) and incubated on a rocker for 4.5 hours at 37 °C. 50 µL of brain homogenate or plasma (within the dialysis cup) and PBS (within the 48-well plate) were transferred to new microcentrifuge tubes containing 400 µL of quenching reagent (100% Acetonitrile) containing internal standard. Solutions were clarified by centrifugation (16,000 x g, 5 min), and the supernatants were transferred to new tubes and lyophilized. Samples were reconstituted in 100 µL of 50/50/0.1 (Water/Acetonitrile/Formic Acid) prior to analysis via liquid chromatography-tandem mass spectrometry (LC-MS/MS). The % of the unbound drug (fu,bound) was calculated using the following equation:
(§2) % Bound = [1− (PBS chromatographic peak area/ brain homogenate or plasma chromatographic peak area)] x 100

Data set [3] can be described thus: Blood-Brain Barrier (BBB) permeability assay (IAM column, Pm). In kind it is in vitro ADME. The conditions noted are these: pH 7.4; Pm > 1.0 = CNS+. The method, then: A liquid chromatography-ultraviolet/visible spectroscopy (LC-UV/Vis) assay was performed on a 1290 Infinity HPLC system (Agilent Technologies) with an HPLC column containing immobilized phosphatidylcholine (IAM.PC.DD, Regis Technologies, Cat#774011, 5 µm 300 Å 100 ×4.6 mm). The HPLC method was a mixture of 6.7 mM phosphate buffer saline (pH 7.4; solvent A) and acetonitrile (solvent B), and a gradient was used for the elution of the compounds (min/%B: 0/20, 20/60, 21/20, 30/20). The retention time of the compound (tr) and void volume time of the column (t0) were recorded. Blood-brain barrier (BBB) permeability (Pm) was calculated using the following equations as described by Yoon et al. (10.1177/1087057105281656):
KIAM = (tr − t0) / t0; Pm = (KIAM / MW^4) x 10^10
Compounds with a Pm > 1.0 were determined to be BBB permeable (CNS + ) at pH 7.

Data set [4] deals with sCLU secreted from human U-87 MG glioblastoma cells. The data set can be described thus: Human sCLU AlphaLISA on supernatant of U-87 MG cells (HTS, re-test, dose response). The format is cell-based. The conditions noted are these: U-87 MG cells; for EC50: Homo sapiens. The protocol:
Cell culture supernatant (2 μL) was added to a 384-well proxy plate preloaded with AlphaLISA HiBlock buffer (2 µL, 1X, CAT#AL004C, Perkin Elmer). Then an anti-sCLU antibody mixture (2 µL, mAb J84, biotinylated (10 nM, Cat# 3717-6-1000, Mabtech) and mAb CLU aa 22-227 (Cat#AF7084, R&D Systems), Acceptor bead conjugated (50 µg/mL, Cat#6772001, Perkin Elmer)) was added and incubated at room temperature for 1 hour. AlphaScreen Streptavidin Donor beads (2 µL, Cat#6760002S, Perkin Elmer) were added, incubated for an additional 30 min in the dark, and the plate was read in an Envision plate reader.
Human glioblastoma U-87 MG cells were proliferated in EMEM with 10% FBS and 1% P/S (complete medium) in 10 cm dishes until approximately 90% confluent. Following trypsinization, a suspension of 2 × 10^5 cells/mL (25 µL) were added to 384-well plates containing complete medium (25 µL) and library compounds from 9 plates (5 µM). After incubation for 30 h at 37 °C and 5% CO2, 2 μL of cell culture supernatant were analyzed via human sCLU AlphaLISA as described above. Cell culture medium and cells were added to the 384-well plates using the MultiDrop. The BioMek FX was used to pin the drugs and transfer the cell culture supernatant. The MANTIS liquid handler was used to added human sCLU AlphaLISA reagents.
Human glioblastoma U-87 MG cells were proliferated in EMEM with 10% FBS and 1% P/S (complete medium) in 10 cm dishes until approximately 90% confluent. […] After incubation for 30 hours at 37 °C and 5% CO2, 2 μL of cell culture supernatant were analyzed via human sCLU AlphaLISA as described above.

Data set [5] in a line: Brain tissue binding assay (dialysis). The format is in vitro ADME. The conditions noted are these: brain homogenate 20 mg/mL, 2 µM compound, dialysis 4.5 hours, 37 °C. The protocol:
as §1, §2

In data set [6] the test system is nCLU levels in U-87 MG cells. Briefly: nCLU levels in U-87 MG cells. The format is cell-based, human. The settings on record: 5 µM.
Another data set deals with U-87 MG cells. Briefly: Cytotoxicity, MultiTox-Fluor (CNS gliotoxicity). The settings on record: U-87 MG cells, dose response (Fig. 2F). The source says:
Cell viability and toxicity were simultaneously assessed using the MultiTox-Fluor Multiplex Cytotoxicity Assay (Cat# PRG9200, Fisher Scientific) according to the manufacturer’s protocol.

Usually kinetic solubility stands for the concentration staying in solution when a stock, usually in DMSO, is diluted into the medium. The term EC50 denotes the midpoint of the concentration-response curve.

Compound `Cc1sc2c(c1C)C(c1ccc(Cl)cc1)=N[C@@H](CC(=O)OC(C)(C)C)c1nnc(C)n1-2` [(+)-JQ1, reference compound] displayed a solubility (kinetic) at 90 min in “Kinetic solubility” of 86.5 µM (≈ 39.5 µg/mL). Moreover, the half-life at 1 µM in data set [1] was found to be 27 min. For the same compound, in data set [2], the “Plasma Binding” value stood at 85 % bound. The “PAMPA Pm” value in data set [3] is listed as 1.44. For the same compound, the EC50 in data set [4] (30 h, AlphaLISA of supernatant, read-out: EC50 for sCLU increase) came out at 313 nM. In addition, the “Brain Tissue Binding” value in data set [5] is 87 % bound. For the same compound, the nCLU levels result in data set [6] is listed as “not affecting nCLU levels”.
As for `O=C(/C=C/c1cccc(S(=O)(=O)Nc2ccccc2)c1)NO` [belinostat], in the data set with U-87 MG cells, the “cytotoxicity, comparison in words” value was “significant differences between belinostat and the BET inhibitors at the highest concentrations tested”. In addition, the EC50 in data set [4] (dose response, text and figures, read-out: sCLU EC50) came to 1120 nM. Besides, in data set [4] (5 µM), the “sCLU levels relative to DMSO control” value is “increased sCLU”. Moreover, the nCLU levels entry in data set [6] is listed as “not affecting nCLU levels”.
